Assay results: patent US5840684A, “Glycopeptide antibiotic derivatives” (Eli Lilly and Company, priority 1995, dated 1998)
≈ marks a conversion by molar mass, not a printed value.

What was measured:
Streptococcus pneumoniae = experiment: mouse protection, experimentally-induced infection; format: in vivo; conditions: mice infected with Streptococcus pneumoniae, two doses
Entercoccus faecium 180 = experiment: broth micro-dilution MIC; format: cell-based; conditions: Entercoccus faecium 180
Method: (§1) The formula I compounds have in vitro and in vivo activity against Gram-positive pathogenic bacteria. The MIC's were determined using a standard broth micro-dilution assay.

[1] = test system: Enterococcus gallinarum 245; experiment: broth micro-dilution MIC; format: cell-based; conditions: Enterococcus gallinarum 245
Method: as §1

[2] = test system: Staphylococcus epidermidis 270; experiment: broth micro-dilution MIC; format: cell-based
Method: as §1

[3] = test system: Streptococcus pneumoniae P1; experiment: broth micro-dilution MIC; format: cell-based
Method: as §1

Entercoccus faecium 2041 = experiment: broth micro-dilution MIC; format: cell-based; conditions: Entercoccus faecium 2041
Method: as §1

[4] = test system: Staphylococcus haemolyticus 415; experiment: broth micro-dilution MIC; format: cell-based
Method: as §1

[5] = test system: Staphylococcus haemolyticus 105; experiment: broth micro-dilution MIC; format: cell-based
Method: as §1

[6] = test system: Haemophilus influenzae RD; experiment: broth micro-dilution MIC; format: cell-based; conditions: Haemophilus influenzae RD
Method: as §1

[7] = test system: vancomycin-resistant enterococci; experiment: broth micro-dilution, mean geometric MIC; format: cell-based, Enterococcus faecium and Enterococcus faecalis; conditions: enterococci, 24-hour incubation
[8] = test system: vancomycin-susceptible enterococci; experiment: broth micro-dilution, mean geometric MIC; format: cell-based, Enterococcus faecium and Enterococcus faecalis; conditions: enterococci, 24-hour incubation
[9] = test system: Staphylococcus aureus 446; experiment: broth micro-dilution MIC; format: cell-based
Method: (§2) The MIC's were determined using a standard broth micro-dilution assay.

[10] = test system: Entercoccus faecium 180-1; experiment: broth micro-dilution MIC; format: cell-based
Method: as §2

[11] = test system: Staphylococcus aureus 447; experiment: broth micro-dilution MIC; format: cell-based
Method: as §2

[12] = test system: Staphylococcus aureus X778; experiment: broth micro-dilution MIC; format: cell-based
Method: as §2

[13] = test system: Staphylococcus aureus SA1199; experiment: broth micro-dilution MIC; format: cell-based
Method: as §2

[14] = test system: Streptococcus pyogenes C203; experiment: broth micro-dilution MIC; format: cell-based
Method: as §2

[15] = test system: Staphylococcus aureus SA1199A; experiment: broth micro-dilution MIC; format: cell-based
Method: as §2

[16] = test system: Staphylococcus aureus 489; experiment: broth micro-dilution MIC; format: cell-based
Method: as §2

[17] = test system: Staphylococcus aureus 491; experiment: broth micro-dilution MIC; format: cell-based
Method: as §2

Entercoccus faecium 276 = experiment: broth micro-dilution MIC; format: cell-based
Method: as §2

[18] = test system: Staphylococcus aureus S13E; format: cell-based
Method: as §2

[19] = test system: Staphylococcus aureus SA1199B; format: cell-based
Method: as §2

Streptococcus pyogenes = experiment: mouse protection, experimentally-induced infection; format: in vivo; conditions: mice infected with Streptococcus pyogenes, two doses
[20] = test system: Staphylococcus aureus X400; experiment: broth micro-dilution MIC; format: cell-based
Method: as §2

Compound | ED50 (Streptococcus pneumoniae) [mg/kg/2] | MIC (Entercoccus faecium 180) [µg/mL] | MIC [1] [µg/mL] | MIC [2] [µg/mL] | MIC [3] [µg/mL] | MIC (Entercoccus faecium 2041) [µg/mL] | MIC [4] [µg/mL] | MIC [5] [µg/mL] | mean geometric MIC, Vancomycin Resistant Strains [7] [µg/mL] | mean geometric MIC, Vancomycin Sensitive Strains [8] [µg/mL] | MIC [9] [µg/mL] | MIC [10] [µg/mL] | MIC [11] [µg/mL] | MIC [12] [µg/mL] | MIC [13] [µg/mL] | MIC [14] [µg/mL] | MIC [15] [µg/mL] | MIC [16] [µg/mL] | MIC [17] [µg/mL] | MIC (Entercoccus faecium 276) [µg/mL] | other results
CNC(CC(C)C)C(=O)NC1C(=O)NC(CC(N)=O)C(=O)NC2C(=O)NC3C(=O)NC(C(=O)NC(C(=O)O)c4cc(O)cc(O)c4-c4cc3ccc4O)C(OC3CC(C)(N)C(O)C(C)O3)c3ccc(c(Cl)c3)Oc3cc2cc(c3OC2OC(CO)C(O)C(O)C2OC2CC(C)(NCc3ccc(OC(F)(F)C(F)F)cc3)C(O)C(C)O2)Oc2ccc(cc2Cl)C1O (stereo not drawn) [Compound 121] | 0.047 | ≤ 0.06 | 2 (≈ 1.11 µM) | 1 (≈ 0.556 µM) | ≤ 0.06 | ≤ 0.06 | 2 (≈ 1.11 µM) | 2 (≈ 1.11 µM) | 1.0 | 0.063 | 2 (≈ 1.11 µM) | ≤ 0.06 | 0.5 (≈ 0.278 µM) | 0.5 (≈ 0.278 µM) | 1 (≈ 0.556 µM) | ≤ 0.06 | ≤ 0.06 | 1 (≈ 0.556 µM) | ≤ 0.06 | ≤ 0.06 | MIC [6]: 16 µg/mL (≈ 8.9 µM); MIC [18]: ≤ 0.06 µg/mL; MIC [19]: 0.25 µg/mL (≈ 0.139 µM); ED50 (Streptococcus pyogenes): 0.041 mg/kg/2
CNC(CC(C)C)C(=O)NC1C(=O)NC(CC(N)=O)C(=O)NC2C(=O)NC3C(=O)NC(C(=O)NC(C(=O)O)c4cc(O)cc(O)c4-c4cc3ccc4O)C(OC3CC(C)(N)C(O)C(C)O3)c3ccc(c(Cl)c3)Oc3cc2cc(c3OC2OC(CO)C(O)C(O)C2OC2CC(C)(NCc3ccc(Oc4cccc(Cl)c4)c([N+](=O)[O-])c3)C(O)C(C)O2)Oc2ccc(cc2Cl)C1O (stereo not drawn) [Compound 87] | 0.027 | ≤ 0.06 | 2 (≈ 1.08 µM) | 1 (≈ 0.539 µM) | ≤ 0.06 | ≤ 0.06 | 2 (≈ 1.08 µM) | 1 (≈ 0.539 µM) | 0.71 | 0.047 | 1 (≈ 0.539 µM) | ≤ 0.06 | 0.5 (≈ 0.27 µM) | 2 (≈ 1.08 µM) | 2 (≈ 1.08 µM) | ≤ 0.06 | ≤ 0.06 | 0.5 (≈ 0.27 µM) | 2 (≈ 1.08 µM) | ≤ 0.06 | MIC [20]: 1 µg/mL (≈ 0.539 µM); MIC [18]: 0.5 µg/mL (≈ 0.27 µM); MIC [19]: 0.5 µg/mL (≈ 0.27 µM); ED50 (Streptococcus pyogenes): 0.054 mg/kg/2
CNC(CC(C)C)C(=O)NC1C(=O)NC(CC(N)=O)C(=O)NC2C(=O)NC3C(=O)NC(C(=O)NC(C(=O)O)c4cc(O)cc(O)c4-c4cc3ccc4O)C(OC3CC(C)(N)C(O)C(C)O3)c3ccc(c(Cl)c3)Oc3cc2cc(c3OC2OC(CO)C(O)C(O)C2OC2CC(C)(NCc3cccc(Oc4cccc(C(F)(F)F)c4)c3)C(O)C(C)O2)Oc2ccc(cc2Cl)C1O (stereo not drawn) [Compound 111] | 0.084 | ≤ 0.06 | 4 (≈ 2.17 µM) | 1 (≈ 0.543 µM) | ≤ 0.06 | ≤ 0.06 | 4 (≈ 2.17 µM) | 1 (≈ 0.543 µM) | 0.71 | 0.031 | 2 (≈ 1.09 µM) | ≤ 0.06 | 1 (≈ 0.543 µM) | 2 (≈ 1.09 µM) | 2 (≈ 1.09 µM) | ≤ 0.06 | 0.5 (≈ 0.271 µM) | 1 (≈ 0.543 µM) | 2 (≈ 1.09 µM) | 0.5 (≈ 0.271 µM) | MIC [20]: 1 µg/mL (≈ 0.543 µM); MIC [18]: 1 µg/mL (≈ 0.543 µM); MIC [19]: 1 µg/mL (≈ 0.543 µM); ED50 (Streptococcus pyogenes): 0.099 mg/kg/2
